Our source for the IC50 values is patent publication EP4782434A1, “N-SULFONYL CARBOXAMIDE COMPOUND, AND PREPARATION METHOD THEREFOR AND USE THEREOF” (Nutshell Therapeutics (Shanghai) Co., Ltd., priority 2023, dated 2025).

One experiment has as its system DLD-1 BRCA2-/- cells. Description: DLD-1 BRCA2-/- cell proliferation assay (CellTiter-Glo, 10 days incubation). The format is cell-based. To be noted: Homo sapiens, 240 h, DLD-1 BRCA2-/- cell line, total incubation period of 10 days, read-out: DLD1 BRCA2^-/- IC50. The source says:
The anti-proliferative effect of the compounds on the human colorectal adenocarcinoma cell line DLD-1 BRCA2^-/- method.
• DLD-1 (purchased from ATCC, Cat. No.: CCL-221, Batch No.: 70033255); • RPMI1640 (purchased from Invitrogen, Cat. No.: 11875-085); • 0.25% Trypsin-EDTA (purchased from Invitrogen, Cat. No.: 25200-072); • Penicillin-Streptomycin solution (purchased from Hyclone, Cat. No.: SV30010); • FBS (purchased from BI, Cat. No.: 04-002-1A); • DMSO (purchased from Sigma, Cat. No.: D4540-1L); • 96-well plate (purchased from Corning, Cat. No.: CLS3903); • CellTiter-Glo reagent (purchased from Promega, Cat. No.: G7558).
The anti-proliferative effect of the compounds on a human colorectal adenocarcinoma cell line was evaluated using an ATP quantification method, wherein the measured activity correlates well with the number of viable cells. The genetically edited cell line DLD-1 BRCA2^-/- was cultured in RPMI 1640 medium (Invitrogen, 11875-085) supplemented with 10% (v/v) fetal bovine serum (BI, 04-002-1A). The cell line was cultured according to the standard instructions of the American Type Culture Collection (ATCC) and identified via short tandem repeat (STR) genotyping.
In the proliferation assay, cells were harvested and resuspended in cell culture medium. Cell density was determined using a cell counter. An appropriate volume of cell suspension was aspirated from the centrifuge tube to prepare a plating working solution (150 cells/100 µL for the DLD-1 BRCA2^-/- cell line). 100 µL of the cell suspension was seeded into each well of a 96-well plate (Corning, 3603) and incubated overnight in an incubator. The diluted test compound solutions were added to the wells. On the fourth and seventh days of compound incubation, the medium was replaced with fresh culture medium, and the compounds were re-administered, for a total incubation period of 10 days. Following incubation, the cell culture plates were removed and equilibrated to room temperature. 100 µL of CellTiter-Glo (Promega, G7558) was added to each well, and the plate was incubated at room temperature for 30 minutes. Data were read using a microplate reader (PerkinElmer, Enspire) in 96-well luminescence mode. Data analysis, curve fitting, and reporting were performed using the dose-response one-site 205 model of IDBS XL fit. Table 2: Proliferation inhibitory activity of compounds against DLD-1 BRCA2-/- cells

For experiment [1], the system named is Theta-mediated end joining (TMEJ) process in HEK293T cells. Put plainly: TMEJ reporter assay (NanoGlo luciferase). To be noted: Homo sapiens, HEK-293T, HEK293T cells electroporated with TMEJ substrate, 24 hours. The format is cell-based. The procedure:
The inhibitory effect of the compounds on the Theta-mediated end joining (TMEJ) process was evaluated.
(1) HEK293T cells were cultured in DMEM supplemented with 10% heat-inactivated fetal bovine serum (FBS) and 1% penicillin-streptomycin (PS). (2) Prior to startup, the Neon transfection system was disinfected, and E2 and R buffers were equilibrated to room temperature. (3) Culture medium without antibiotics was pre-warmed. (4) Cells in the flask reaching 80-90% confluency were trypsinized, neutralized with culture medium, centrifuged, and counted. (5) For transfection using a 100 µL electroporation tip, 2 × 10^6 cells were taken, washed once with DPBS (without Mg^2+ and Ca^2+), centrifuged at 1000 rpm for 5 min, and the supernatant was discarded. The number of cells and volume may be increased as required. (6) The Neon system was set up; a Neon tube was inserted into the Neon pipette and E2 buffer was added. (7) 10 µg of TMEJ substrate was added to 100 µL of R solution; the volume may be increased as required. (8) Cells were resuspended in DNA buffer, and electroporation was initiated according to the following parameters:
(9) The cells were loaded into antibiotic-free culture medium and mixed gently. (10) Steps (8)-(9) were repeated as necessary, and cells were seeded into 384-well plates at a density of 40,000 cells/well in 40 µL of culture medium. (11) The plates were incubated in a humidified CO2 incubator at 37°C for 24 hours. (12) NanoGlo reagent was warmed to room temperature, and NanoGlo buffer was mixed with the substrate at a ratio of 50:1. (13) The cell culture plates were equilibrated at room temperature for 10 minutes. (14) 40 µL of NanoGlo substrate buffer was added to each well, followed by shaking at 300 rpm for 3 minutes protected from light. (15) Signals were read via a BMG PHERAstar FSX.

A further experiment deals with T1, Polθ ATPase (Homo sapiens, UniProt O75417).
T1 construct: purified truncated POLQ-N protein (aa 1-894, N-terminal 6-His tag); 6-His (N)
Put plainly: Polθ ATPase activity assay (ADP-Glo Kinase Assay kit). The format is biochemical. To be noted: truncated POLQ-N protein (aa 1-894) 1 nM, 50 nM ssDNA, 50 µM ATP. The procedure: The inhibitory efficiency of the compounds of formula (I) against Polθ ATPase activity was determined using the ADP-Glo Kinase Assay kit (Promega, V9101). […] The starting (final) concentration was 100 nM, followed by a 3-fold serial dilution for a total of 10 concentration points in duplicate (n=2). 5 μL of purified […], N-terminal 6-His tag) was added to each well. After centrifugation at 1000 rpm for 1 minute, the plate was incubated at 25°C for 10 minutes. 5 μL of substrate reaction solution (containing ATP & ssDNA) was added to each well, and the reaction was carried out at 25°C for 60 minutes. 5 μL of ADP-Glo Reagent was added to each well. After centrifugation at 1000 rpm for 1 minute, the plate was incubated at 25°C for 40 minutes. 10 μL of detection solution was added to each well. After centrifugation at 1000 rpm for 1 minute, the plate was incubated at 25°C for 40 minutes. Luminescence signals were recorded using a microplate reader (BMG, PHERAstar FSX). The final reaction system contained 1 nM of POLQ-N enzyme; 50 nM of ssDNA ([NT]); 50 μM of ATP; and 1% DMSO. The inhibition percentage (%) of the compound at each concentration was calculated using the RFU values normalized against the control wells within each assay plate. Table 1: Inhibitory activity of compounds against Polθ ATPase

T1 sequence (O75417 1-894): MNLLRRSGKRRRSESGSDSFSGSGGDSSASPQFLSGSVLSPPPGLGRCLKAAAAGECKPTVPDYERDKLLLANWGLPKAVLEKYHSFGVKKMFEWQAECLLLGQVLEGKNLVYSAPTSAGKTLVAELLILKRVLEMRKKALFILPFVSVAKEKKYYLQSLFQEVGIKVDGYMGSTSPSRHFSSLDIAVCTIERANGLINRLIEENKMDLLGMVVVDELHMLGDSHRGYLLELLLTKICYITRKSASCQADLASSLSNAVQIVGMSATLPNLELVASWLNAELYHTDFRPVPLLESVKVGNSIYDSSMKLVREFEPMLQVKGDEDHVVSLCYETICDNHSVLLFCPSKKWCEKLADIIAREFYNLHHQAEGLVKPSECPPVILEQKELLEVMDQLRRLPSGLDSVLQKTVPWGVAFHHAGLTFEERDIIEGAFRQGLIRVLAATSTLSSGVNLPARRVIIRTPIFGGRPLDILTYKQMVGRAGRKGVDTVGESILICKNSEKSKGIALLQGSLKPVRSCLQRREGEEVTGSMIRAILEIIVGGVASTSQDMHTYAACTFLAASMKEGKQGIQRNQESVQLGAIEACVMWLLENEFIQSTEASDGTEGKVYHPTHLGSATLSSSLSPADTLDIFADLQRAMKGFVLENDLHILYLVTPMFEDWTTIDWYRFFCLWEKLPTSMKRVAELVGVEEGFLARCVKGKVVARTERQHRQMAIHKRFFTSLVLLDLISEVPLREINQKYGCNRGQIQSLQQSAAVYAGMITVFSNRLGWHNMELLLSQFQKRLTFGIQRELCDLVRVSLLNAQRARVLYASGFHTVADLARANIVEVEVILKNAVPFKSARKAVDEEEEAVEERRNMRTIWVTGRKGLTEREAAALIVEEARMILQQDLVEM

`COc1cnc(C(F)F)cc1-c1cc(C)ccc1C(=O)NS(=O)(=O)Cc1ccc([C@@H](C)OC)cc1` [cpd-8, (R)-2-(2-(Difluoromethyl)-5-methoxypyridin-4-yl)-N-((4-(1-methoxyethyl)benzyl)sulfonyl)-4-methylbenzamide]: the IC50 was 57 nM with DLD-1 BRCA2-/- cells, 2 nM in experiment [1], at most 2 nM on Polθ ATPase (class symbols) and 0.72 nM at Polθ ATPase (specific values).
In the case of `COc1ccc(C(F)F)cc1-c1cc(CC(=O)N(C)C)ccc1C(=O)NS(=O)(=O)Cc1ccc(C(C)C)cc1` [cpd-11, 5'-(Difluoromethyl)-5-(2-(dimethylamino)-2-oxoethyl)-N-((4-isopropylbenzyl)sulfonyl)-2'-methoxy-[1,1'-biphenyl]-2-carboxamide], the IC50 with DLD-1 BRCA2-/- cells is 99 nM; in experiment [1], 2 nM; at Polθ ATPase (class symbols) it was at most 2 nM; against Polθ ATPase (specific values), 0.53 nM.
`[2H]C([2H])([2H])Oc1cnc(C(F)F)cc1-c1cc(C([2H])([2H])[2H])ccc1C(=O)NS(=O)(=O)Cc1ccc([C@H](C)OC([2H])([2H])[2H])cc1` [cpd-18, (S)-2-(2-(Difluoromethyl)-5-(methoxy-d3)pyridin-4-yl)-N-((4-(1-(methoxy-d3)ethyl)benzyl)sulfonyl)-4-(methyl-d3)benzamide]: the IC50 in the experiment on DLD-1 BRCA2-/- cells was 17 nM; in experiment [1], 1.3 nM; on Polθ ATPase (class symbols) it was at most 2 nM; against Polθ ATPase (specific values) it was 1.4 nM.
In the case of `[2H]C([2H])([2H])O[C@@H](C)c1ccc(CS(=O)(=O)NC(=O)c2ccc(C)cc2-c2cc(C(F)F)ncc2OC)cc1` [cpd-19, (S)-2-(2-(Difluoromethyl)-5-methoxypyridin-4-yl)-N-((4-(1-(methoxy-d3)ethyl)benzyl)sulfonyl)-4-methylbenzamide], the IC50 in the experiment with DLD-1 BRCA2-/- cells is 21 nM; in experiment [1] it was 2 nM; against Polθ ATPase (class symbols) it was at most 2 nM; on Polθ ATPase (specific values), 0.45 nM.
In the same order, the values of `[2H]C([2H])([2H])O[C@@H](C)c1ccc(CS(=O)(=O)NC(=O)c2ccc(C([2H])([2H])[2H])cc2-c2cc(C(F)F)c(F)cc2OC)cc1` [cpd-21, (S)-5'-(Difluoromethyl)-4'-fluoro-2'-methoxy-N-((4-(1-(methoxy-d3)ethyl)benzyl)sulfonyl)-5-(methyl-d3)-[1,1'-biphenyl]-2-carboxamide] are 5.2 nM, 2.3 nM, at most 2 nM and 1.5 nM.
For the compound `[2H]c1c([2H])c([C@H](C)OC([2H])([2H])[2H])c([2H])c([2H])c1CS(=O)(=O)NC(=O)c1ccc(C([2H])([2H])[2H])cc1-c1cc(Cl)ncc1OC` [cpd-22, (S)-2-(2-Chloro-5-methoxypyridin-4-yl)-N-(4-(1-(methoxy-d3)ethyl)(phenyl-2,3,5,6-d4)methylsulfonyl)-4-(methyl-d3)benzamide], the IC50 with DLD-1 BRCA2-/- cells is 48 nM; in experiment [1], 1.3 nM; on Polθ ATPase (class symbols), at most 2 nM; at Polθ ATPase (specific values) it was 1.1 nM.
